Reference: patent publication US20260284028A1, “FUSED BICYCLIC HETEROCYCLYL COMPOUNDS AS CCR4 MODULATORS” (AURIGENE ONCOLOGY LIMITED, priority 2023, published 2026)
Read-outs that look alike come from different tables or passages of the source.

Molecular target: T1, CCR4 (Homo sapiens, UniProt P51679)
T1 construct: expressed in transfected cells; host or cells: CHO-K1
T1 sequence (P51679 1-360): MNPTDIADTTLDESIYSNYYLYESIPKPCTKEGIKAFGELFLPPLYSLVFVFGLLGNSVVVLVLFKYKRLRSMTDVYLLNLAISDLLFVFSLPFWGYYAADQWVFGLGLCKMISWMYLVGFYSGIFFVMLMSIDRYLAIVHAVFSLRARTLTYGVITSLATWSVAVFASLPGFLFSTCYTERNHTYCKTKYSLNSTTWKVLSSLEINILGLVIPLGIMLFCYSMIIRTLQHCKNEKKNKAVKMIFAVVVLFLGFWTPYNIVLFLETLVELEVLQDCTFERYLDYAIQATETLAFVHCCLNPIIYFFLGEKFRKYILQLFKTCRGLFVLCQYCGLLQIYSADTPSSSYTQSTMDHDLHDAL
Experiment: β-Arrestin recruitment assay (CHO-K1 CCR4 β-Arrestin cells stimulated with recombinant human CCL22)
Assay type: cell-based
Settings: CCL22 10 nM stimulation; for IC50: read-out: CCR4 antagonistic activity IC50 (μM) in range; for inhibition: read-out: % inhibition at 5 μM/30 μM (% E-Max)
Experimental: CHO-K1 CCR4 β-Arrestin cells were seeded and incubated overnight at 37° C. in a CO2 incubator for adherence. Next day, cells were pretreated with various concentrations of CCR4 modulators for 30 mins at 37° C. The cells were stimulated with recombinant human CCL22 (10 nM) and further incubated for 90 mins. Working detection solution was added and incubated at room temperature for 1 hour after which the chemiluminescent signal was read using a luminometer.
Exemplary compounds of the present application were screened by the above-mentioned assay and the results were tabulated.

[1] = CHO-K1, read-out: % inhibition 30 μM (% E-Max)

IC50 [µM] | inhibition (CHO-K1, at 30 μM) [%] | inhibition [1] [%] | SMILES
< 0.25 | 104 | – | C[C@@H](Nc1c(F)ccc2nc(N3CC([C@H]4CCCN([C@H]5C[C@](C)(C(=O)O)C5)C4)C3)oc12)c1ccc(Cl)cc1Cl [Compound 6]
> 0.5 | 99 | – | C[C@H](Nc1c(OC(F)F)ccc2nc(N3CC([C@H]4CCCN([C@H]5C[C@](C)(C(=O)O)C5)C4)C3)sc12)c1ncc(F)cc1F [Compound 52]
< 0.25 | – | 101 | C[C@@H](Nc1c(F)ccc2nc(N3CC([C@H]4CCCN([C@H]5C[C@](C)(C(=O)O)C5)C4)C3)sc12)c1ccc(Cl)cc1Cl [Compound 25]
– | – | 52 | C[C@@H](Nc1c(OC(F)F)ccc2nc(N3CC([C@H]4CCCN([C@H]5C[C@](C)(C(=O)O)C5)C4)C3)sc12)c1ncc(Cl)cc1Cl [Compound 48]
0.25 to 0.5 | – | 84 | C[C@H](Nc1c(F)ccc2nc(N3CC([C@H]4CCCN([C@H]5C[C@](C)(C(=O)O)C5)C4)C3)sc12)c1ncc(F)cc1F [Compound 40]
< 0.25 | – | 104 | C[C@@H](Nc1ncnc2nc(N3CC([C@H]4CCCN([C@H]5C[C@](C)(C(=O)O)C5)C4)C3)sc12)c1ccc(Cl)cc1Cl [Compound 32, (1R,3r)-3-((R)-3-(1-(7-(((R)-1-(2,4-Dichlorophenyl)ethyl)amino)thiazolo[4,5-d]pyrimidin-2-yl)azetidin-3-yl)piperidin-1-yl)-1-methylcyclobutane-1-carboxylic acid]
< 0.25 | – | 103 | C[C@@H](Nc1c(F)ccc2nc(N3CC(C4CN([C@H]5C[C@](C)(C(=O)O)C5)CCO4)C3)sc12)c1ccc(Cl)cc1Cl (stereo partly shown) [Compound 26]
0.25 to 0.5 | – | 94 | C[C@@H](Nc1ncnc2nc(N3CC([C@H]4CCCN([C@H]5C[C@](C)(C(=O)O)C5)C4)C3)sc12)c1ncc(Cl)cc1Cl [Compound 53]
< 0.25 | – | 103 | Cc1ccc2nc(N3CC([C@H]4CCCN([C@H]5C[C@](C)(C(=O)O)C5)C4)C3)oc2c1N[C@H](C)c1ccc(Cl)cc1Cl [Compound 18]
0.25 to 0.5 | – | 102 | C[C@@H](Nc1nc(C(F)(F)F)nc2nc(N3CC([C@H]4CCCN([C@H]5C[C@](C)(C(=O)O)C5)C4)C3)sc12)c1ccc(Cl)cc1Cl [Compound 34]
> 0.5 | – | 89 | C[C@@H](Nc1c(F)cnc2nc(N3CC([C@H]4CCCN([C@H]5C[C@](C)(C(=O)O)C5)C4)C3)sc12)c1ncc(F)cc1F (single isomer, unassigned) [Compound 45]
0.25 to 0.5 | – | 101 | CC(Nc1c(F)cnc2nc(N3CC([C@H]4CCCN([C@H]5C[C@](C)(C(=O)O)C5)C4)C3)sc12)c1ncc(Cl)cc1Cl (stereo partly shown) [Compound 41]
– | – | 41.5 | C[C@@H](Nc1c(C(=O)N(C)C)ccc2nc(N3CC([C@H]4CCCN([C@H]5C[C@](C)(C(=O)O)C5)C4)C3)oc12)c1ccc(Cl)cc1Cl [Compound 20]
0.25 to 0.5 | – | 99 | C[C@H](Nc1c(OC(F)F)ccc2nc(N3CC([C@H]4CCCN([C@H]5C[C@](C)(C(=O)O)C5)C4)C3)sc12)c1ncc(Cl)cc1Cl (single isomer, unassigned) [Compound 49]
0.25 to 0.5 | 102 | – | Cc1cc(N[C@H](C)c2ccc(Cl)cc2Cl)c2oc(N3CC([C@H]4CCCN([C@H]5C[C@](C)(C(=O)O)C5)C4)C3)nc2c1 [Compound 5]
0.25 to 0.5 | – | 99.3 | C[C@@H](Nc1c(OC(F)(F)F)ccc2nc(N3CC([C@H]4CCCN([C@H]5C[C@](C)(C(=O)O)C5)C4)C3)oc12)c1ccc(Cl)cc1Cl [Compound 12]
< 0.25 | – | 103 | C[C@@H](Nc1c(C#N)ccc2nc(N3CC([C@H]4CCCN([C@H]5C[C@](C)(C(=O)O)C5)C4)C3)oc12)c1ccc(Cl)cc1Cl [Compound 21]
0.25 to 0.5 | – | 93 | COc1ccc2nc(N3CC([C@H]4CCCN([C@H]5C[C@](C)(C(=O)O)C5)C4)C3)oc2c1N[C@H](C)c1ccc(Cl)cc1Cl [Compound 10]
< 0.25 | 99.5 | – | C[C@@H](Nc1cccc2nc(N3CC([C@H]4CCCN([C@H]5C[C@](C)(C(=O)O)C5)C4)C3)oc12)c1ccc(Cl)cc1Cl [Compound 2, (1R,3r)-3-((R)-3-(1-(7-(((R)-1-(2,4-dichlorophenyl)ethyl)amino)benzo[d]oxazol-2-yl)azetidin-3-yl)piperidin-1-yl)-1-methylcyclobutane-1-carboxylic acid]
– | 71 | – | C[C@@H](Nc1cccc2c1nc(N1CC([C@H]3CCCN([C@H]4C[C@](C)(C(=O)O)C4)C3)C1)n2C)c1ccc(Cl)cc1Cl [Compound 4]
